Experiment [1] deals with T1, mcr-1 protein (Escherichia coli, UniProt A0A0R6L508).
T1 construct: gene mcr1; mcr-1 amplified from K. pneumoniae ZJ02, pET28a(+) NheI/XhoI, E. coli BL21(DE3), Ni-NTA; tag removal not mentioned
Kind of experiment: nano differential scanning fluorimetry. The class given is binding. As to conditions: apigenin 32 µg/mL, mcr-1 100 µg/mL, PBS, 20 min incubation, 25-95 °C at 5 °C/min; Tm lowered (destabilised). In general terms: Differential scanning fluorimetry follows unfolding on heating by fluorescence.

Experiment [2] concerns the target T1, mcr-1 protein. Kind of experiment: microscale thermophoresis. The class given is binding. For orientation: MST reads how a fluorescent partner responds to local heating, with and without ligand.

T1 sequence (A0A0R6L508 whole entry): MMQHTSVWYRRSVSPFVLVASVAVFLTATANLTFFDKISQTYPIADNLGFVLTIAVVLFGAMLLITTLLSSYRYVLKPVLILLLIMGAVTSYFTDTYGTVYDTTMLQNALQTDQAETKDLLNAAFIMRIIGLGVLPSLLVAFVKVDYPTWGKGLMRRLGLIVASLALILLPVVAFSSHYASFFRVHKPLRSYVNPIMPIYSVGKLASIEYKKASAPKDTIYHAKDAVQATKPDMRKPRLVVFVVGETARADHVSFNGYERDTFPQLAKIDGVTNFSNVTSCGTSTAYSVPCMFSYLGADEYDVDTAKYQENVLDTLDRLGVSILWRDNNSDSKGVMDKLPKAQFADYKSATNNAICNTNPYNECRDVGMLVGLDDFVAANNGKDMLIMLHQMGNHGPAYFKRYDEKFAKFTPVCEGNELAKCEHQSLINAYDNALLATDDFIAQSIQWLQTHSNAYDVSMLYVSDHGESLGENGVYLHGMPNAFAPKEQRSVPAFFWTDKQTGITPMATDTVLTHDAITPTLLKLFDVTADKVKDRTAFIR

Usually Kd stands for the constant that tells how readily two partners part at equilibrium. For the compound `O=c1cc(-c2ccc(O)cc2)oc2cc(O)cc(O)c12` [apigenin], the Tm decrease in experiment [1] is 5.7 °C. The compound further displayed an equilibrium dissociation constant (Kd) in experiment [2] of 4.35 µM.

For the origin of these results see publication PMC11448233, “High-throughput screening identification of apigenin that reverses the colistin resistance of mcr-1-positive pathogens” (Microbiology Spectrum, 2024).
